# Data: the METLIN SMRT retention time set (Domingo-Almenara et al. 2019)
# Test: gradient 5% acetonitrile 3 min, to 50% in 2 min, to 85% in 15 min, held 3 min, 100 µL/min
# Details: column: Zorbax Extend-C18 2.1 x 50 mm; eluents: water / acetonitrile, 0.1% formic acid
# Method in brief: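 Values are retention times taken from adduct peaks that software picked and an analyst inspected. The pure standards were run as mixtures of ~100 molecules on HPLC linked to a quadrupole time-of-flight mass spectrometer, in positive and negative ionization mode. A Zorbax Extend-C18 column (2.1 × 50 mm, 1.8 μm) was used at 100 μL/min with water and acetonitrile, each including 0.1% formic acid.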
row,Structure (SMILES),RP-LC retention time
1,Cn1c(N2CCCC(C(=O)N3CCN(Cc4ccccc4)CC3)C2)cc(=O)n(C)c1=O (centres undefined),597 s
2,CCOc1ccc2ncc(C(=O)c3ccc(C)cc3)c(N3CCN(CC)CC3)c2c1,622 s
3,COc1ccc(-c2csc(NC(=O)Nc3ccc(Cl)c(Cl)c3)n2)cc1Br,1280 s
4,CCN1C(=O)CCc2cc(NS(=O)(=O)c3cccc(Cl)c3)ccc21,1000 s
5,O=C(COc1ccccc1)OCc1nc2ccccc2s1,929 s
6,Cc1ccc(NC(=O)CSc2nnc3c4cc(-c5ccccc5)nn4ccn23)c(Cl)c1,957 s
7,CCN(CC)S(=O)(=O)c1ccc2c(c1)cc(C(=O)NCCC(C)N1CCCC1)n2C (centres undefined),658 s
8,Cn1c(=O)c2cc(C(=O)NCCc3ccncc3)nn2c2ccccc21,584 s
9,CCCNC(=O)CC1CCN(C(=O)c2[nH]c(C)c(C)c2C)CC1,698 s
10,CCOc1ccc(N2C(=O)C3N=NN(Cc4nc(-c5ccc(Cl)cc5)no4)C3C2=O)cc1 (centres undefined),722 s
11,O=C(CSc1ncnc2c1[nH]c1ccc(F)cc12)N1CCc2ccccc2C1,891 s
12,O=C1NCCCCCCN(C(=O)c2cc(CN3CCOCC3)on2)[C@H]2CCCC[C@@H]12,621 s
13,O=C(NC1CCN(c2cc(-c3ccc(Cl)cc3)[nH]n2)C1)c1ccccc1 (centres undefined),712 s
14,COCCn1cc(CCNC(=O)Nc2cccc(C)c2C)c2cccnc21,721 s
15,CCCCOc1ccc(CNC(=O)c2cc3c(=O)n(C)ccc3n2C)cc1,848 s
16,O=C(NCCCn1c(-c2ccncc2)nc2cccnc21)Nc1cccc(C(F)(F)F)c1,725 s
17,Cc1cc(C)n(-c2ccc(=O)n(CC(=O)N3CCN(c4ncccn4)CC3)n2)n1,623 s
18,CCCCn1nc(-c2nc(-c3ccc(F)cc3)no2)ccc1=O,1100 s
19,Cc1cc(C)nc(Nc2nc(CC(=O)NCCc3ccc(S(N)(=O)=O)cc3)cs2)n1,604 s
20,COc1ccc(NC(=O)c2nc(C)oc2C)c(OC)c1,913 s
21,O=C1COc2cc(Cl)ccc2N1Cc1nc(-c2ccc(F)c(Br)c2)no1,1210 s
22,O=C1NCCc2c1[nH]c1ccccc21,750 s

row,Structure (SMILES),RP-LC retention time
1,CC1CN(c2ccc(Cl)cc2)c2nc3c(c(=O)n(CC(=O)O)c(=O)n3C)n2C1 (centres undefined),790 s
2,C=CCN1C(=O)COc2ccc(-c3csc(NC(=O)C4CC4)n3)cc21,842 s
3,Cc1c(S(=O)(=O)NCc2ccc3c(c2)CCN3C(=O)C(C)C)cnn1C(F)F,801 s
4,COC(=O)c1ccccc1NC(=O)CCc1c(-c2ccc(Cl)cc2)nc2ccccn12,772 s
5,CC1=C(c2ccccc2)S(=O)(=O)N=C1N1CCCN(C(=O)Nc2cccc(C)c2)CC1,709 s
6,O=C(NCCc1ccccn1)C1CCCN(c2nnc3ccc(C(F)(F)F)cn23)C1 (centres undefined),583 s
7,Cc1ccc(CNC(=O)C2CCN(C(=O)c3ncn4c3COC(c3ccc(Cl)cc3)C4)CC2)cc1 (centres undefined),870 s
8,Cc1sc2ncnc(N3CCCC(C)C3)c2c1C(=O)Nc1cc(F)c(F)cc1F (centres undefined),858 s
9,COc1nccnc1N1CCC(N(C)C(=O)c2ccc(C)s2)C1 (centres undefined),785 s
10,Cn1c(=O)cnc2ccc(N3CCOCC3)nc21,662 s
11,COc1ccc(-c2cn3ccn(-c4ccc(F)c(Cl)c4)c(=O)c3n2)cc1OC,804 s
12,Cc1ccn2cc(-c3ccc(NC(=O)CCCc4ccccc4)cc3)nc2n1,694 s
13,CCn1cnc(S(=O)(=O)N2CCC(C(=O)NCc3ccc(Cl)cc3)CC2)c1,729 s
14,Cc1ccc(C)c(N2C(=O)CN(S(C)(=O)=O)CC2(C)C(=O)NCc2ccc(Cl)cc2)c1 (centres undefined),889 s
15,O=C(Nc1ccc(Cl)cc1)c1csc(-c2ccc(N3CCCC3)nc2)n1,837 s
16,CCOC(=O)CNC(=O)NCc1cccn1Cc1ccccc1C,737 s
17,O=C(c1c(F)cccc1F)N1CCN(S(=O)(=O)C2CC2)CC1,691 s
18,CCc1ccc(NC(=O)C2CCCN(S(=O)(=O)c3cc(-c4noc(C)n4)cs3)C2)cc1 (centres undefined),992 s
19,COc1ccc(OC)c(NC(=O)C2CCCN(c3nnc4ccc(Cl)cn34)C2)c1 (centres undefined),810 s
20,CC(C)c1cc(C(=O)Nc2ccc(F)c(F)c2)nc2ccnn12,1180 s
21,CSc1ccc(-c2nc3ccc(C)cn3c2Nc2ccc(C)cc2)cc1,819 s
22,Cc1ccc(-c2nnc(C)c(NC3CC3)n2)cc1,644 s
